Molecular target: T1, PRKCB2 (PKC beta II) (Homo sapiens, UniProt P05771)
T1 construct: purchased Thermo Fisher Scientific (Life Technologies) SelectScreen
Experiment: SelectScreen Z'LYTE
Type: biochemical
In short: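 SelectScreen broad panel; activity (Z'LYTE, Adapta) plus binding formats. ATP: Km app for CSF1R Z'LYTE; 10 for CAMK1 Adapta. Readout = % per kinase.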

T1 sequence (P05771 1-673 isoform P05771-2): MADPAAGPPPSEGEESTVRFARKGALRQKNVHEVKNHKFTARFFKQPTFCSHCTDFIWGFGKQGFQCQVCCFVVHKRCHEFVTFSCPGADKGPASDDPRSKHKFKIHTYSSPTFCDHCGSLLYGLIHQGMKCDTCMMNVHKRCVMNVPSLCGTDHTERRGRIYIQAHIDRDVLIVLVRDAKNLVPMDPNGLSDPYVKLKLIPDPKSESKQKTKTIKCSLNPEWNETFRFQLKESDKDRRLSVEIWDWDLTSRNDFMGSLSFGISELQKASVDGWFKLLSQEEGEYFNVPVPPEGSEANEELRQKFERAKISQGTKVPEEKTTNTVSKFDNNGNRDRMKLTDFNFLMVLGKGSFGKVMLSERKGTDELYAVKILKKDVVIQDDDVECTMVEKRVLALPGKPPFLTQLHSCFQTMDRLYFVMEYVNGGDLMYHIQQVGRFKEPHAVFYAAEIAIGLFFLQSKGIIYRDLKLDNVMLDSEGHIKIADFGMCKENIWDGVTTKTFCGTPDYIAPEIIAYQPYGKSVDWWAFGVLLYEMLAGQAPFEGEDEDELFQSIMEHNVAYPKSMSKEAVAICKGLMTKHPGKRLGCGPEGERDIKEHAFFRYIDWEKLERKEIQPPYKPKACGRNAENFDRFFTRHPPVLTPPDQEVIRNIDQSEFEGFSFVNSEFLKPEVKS

CN(C(=O)CN1CCOCC1)c1ccc2sc3c(-c4cccc5c(=O)cc(N6CC7CCC(C6)O7)oc45)cccc3c2c1 [NU5455]
inhibition at 1 µM: -9.6%

Source: PMC6934184, “Selective DNA-PKcs inhibition extends the therapeutic index of localized radiotherapy and chemotherapy” (The Journal of Clinical Investigation, 2019)
